In the experiment the test system is S. haemolyticus 114126. The experiment in a line: BCT test (bacterial contact time), 120 s, log reduction / effect fraction; CI by Compusyn. Format: cell-based. The following applies: Staphylococcus haemolyticus, 114126, 2 min; for log reduction at 0.1 % strength: dose 0.1% w/v; for log reduction at 0.125 % strength: dose 0.125% w/v; for log reduction at 0.15 % strength: dose 0.15% w/v; for log reduction at 0.2 % strength: dose 0.2% w/v; for log reduction at 0.5 % strength: dose 0.5% w/v; for log reduction at 0.05 % strength: dose 0.05% w/v; for log reduction at 0.35 % strength: dose 0.35% w/v; for log reduction at 1 % strength: dose 1.0% w/v; for log reduction at 1.25 % strength: dose 1.25% w/v; for log reduction at 1.5 % strength: dose 1.5% w/v. As to the method: S. haemolyticus: Suspensions of the S. haemolyticus 114126 strain, isolated from skin, were prepared as follows: Stock cultures (stored at −80° C.) were thawed and sub-cultured onto TSA-TW80 agar plate media, and incubated at 37° C. for 24 h to obtain single colonies. Single colonies of the primary cultures were streaked onto fresh TSA-TW80 plates and incubated at 37° C. for 24 h to prepare secondary cultures. Single colonies of secondary cultures were picked and used to inoculate 50 mL of BHI-TW80 broth. The inoculated broth was incubated at 37° C. at 180 rpm for 18 h. Aliquots (0.5 ml) of the 18 h culture were inoculated into 50 ml of fresh BHI-TW80 broth, and incubated at 37° C. at 180 rpm for approximately 3 hours. When the OD 600 nm value of the broth reached 1-2, cells were harvested by centrifugation at 5000 rpm for 10 min, and then resuspended in fresh BHI-TW80 broth at a concentration of 1-5×10^8 CFU/mL. This suspension was used as the bacterial suspension for the BCT test.
BCT Test: Test compositions at a range of concentrations (either combinations of more than one perfume ingredient, and comparative compositions comprising the single perfume ingredients) were prepared in ethanol. Five replicates of each test composition were added into 96-well microtiter plates (120 μl per well), with row B containing control compositions containing the ethanol solution alone. 120 μl of bacterial cell suspensions at a concentration of approximately 1×10^8 bacteria per mL (as prepared above) were added to each well of the microtiter plate. The bacterial suspensions were incubated with the test solutions for 45, 60, or 120 seconds. Following the incubation of the bacterial suspensions with the test solutions, serial dilutions of the bacterial suspensions were generated (three serial 1:10 dilutions, followed by 17 serial 1:2 dilutions), in multiwell microtiter plates.
Each plate was sealed and incubated at 37° C. under agitation (180 rpm). After incubation, the turbidity of the wells (OD600 nm) was determined using a Tecan microplate reader. Turbid wells were regarded as positive growth, due to the presence of viable cells. The total number of viable cells (log CFU) for each sample was calculated. And the log reduction for each test composition at the final concentration (dose) was calculated against the control sample of the ethanol solution.
Determination of Synergy via the Combination Index (CI): The CI was calculated using Compusyn software (ComboSyn, Inc., as created by Dr. Dorothy Chou in 2005), according to the manufacturer's instructions. The concentration of each test composition (combinations of more than one perfume ingredient, and comparative compositions comprising the single perfume ingredients used to generate the combination) and their corresponding effect fraction was entered, and the corresponding CI calculated.
When the calculated CI values were less than 0.9, the combination of perfume ingredients was regarded as having synergistic effect. When the calculated CI was between 1.0 a 0.9, the combination of perfume ingredients was regarded as having an additive effect. When the calculated CI was greater than 1.0, the combination of perfume ingredients was regarded as having an antagonistic effect.

The mark [1] stands for this setting: dose 0.175% w/v, contact 120 s, 25% EtOH, read-out: Log reduction.
Where [2] appears, read: dose 0.25% w/v, contact 120 s, 25% EtOH, read-out: Log reduction.
The mark [3] stands for this setting: dose 0.3% w/v, contact 120 s, 25% EtOH, read-out: Log reduction.
Where [4] appears, read: dose 0.4% w/v, contact 120 s, 25% EtOH, read-out: Log reduction.

Like-named read-outs stand apart in the source and are kept apart here.

Turning to `CCCCCCC1CCC(=O)O1` (centres unmarked) [Decal], for the setting “contact 120 s, 25% EtOH”, the log reduction at 0.1 % strength stood at 0.5, the log reduction at 0.125 % strength stood at 0.7, the log reduction at 0.15 % strength came out at 1.2 and the log reduction at 0.2 % strength amounted to 4.5. In addition, the log reduction at 0.175 % strength under setting [1] turned out to be 3.2.

Take `Cc1ccc2c(c1)OCC(=O)CO2` [Calone, 7-methyl-2H-1,5-benzodioxepin-3(4H)-one]: the log reduction at 0.5 % strength (contact 120 s, 25% EtOH) is 0. The log reduction at 0.7 % strength (dose 0.7% w/v, contact 120 s, 25% EtOH) was 0.5. Also, the log reduction at 0.8 % strength (dose 0.8% w/v, contact 120 s, 25% EtOH) was determined as 2.9. Also, the log reduction at 0.9 % strength (dose 0.9% w/v, contact 120 s, 25% EtOH) is 4.7. Also, the log reduction at 1.2 % strength (dose 1.2% w/v, contact 120 s, 25% EtOH) turned out to be 6.9.

Regarding `CC(C)=CCC/C(C)=C\CO` [Nerol, (Z)-3,7-dimethyl-2,6-octadien-1-ol], under “contact 120 s, 25% EtOH”, the log reduction at 0.05 % strength came out at 0.1, the log reduction at 0.1 % strength was determined as 1.4, the log reduction at 0.125 % strength amounted to 4 and the log reduction at 0.15 % strength amounted to 6.2. For the same molecule, under setting [1], the log reduction at 0.175 % strength was found to be 7.4.

As to `CC(CCO)CCc1ccccc1` (centres unmarked) [Phenylhexanol, 3-methyl-5-phenyl-1-pentanol], under “contact 120 s, 25% EtOH”, the log reduction at 0.1 % strength came out at 1.2, the log reduction at 0.125 % strength amounted to 3.9, the log reduction at 0.15 % strength stood at 6.1 and the log reduction at 0.2 % strength came out at 7.3. Besides, the log reduction at 0.175 % strength under setting [1] was 6.9.

`CC(=O)OCc1ccccc1` [Benzyl acetate, benzyl acetate]: under setting [2], the log reduction at 0.25 % strength stood at 0.2. Under setting [3], the log reduction at 0.3 % strength worked out at 0.5. For the same molecule, where the note is “contact 120 s, 25% EtOH”, the log reduction at 0.35 % strength turned out to be 1.3 and the log reduction at 0.5 % strength is 6.2. For the same molecule, under setting [4], the log reduction at 0.4 % strength was 2.5.

Consider `O=c1ccc2ccccc2o1` [Coumarine, 2H-chromen-2-one], for which, under “contact 120 s, 25% EtOH”, the log reduction at 0.5 % strength amounted to 0, the log reduction at 1 % strength amounted to 1.7, the log reduction at 1.25 % strength is 6.3 and the log reduction at 1.5 % strength was determined as 7.5. Besides, the log reduction at 0.75 % strength (dose 0.75% w/v, contact 120 s, 25% EtOH) stood at 0.7.

As for `CCC(C)(O)CCCC(C)C` (centres unmarked) [Tetralinol, 3,7-Dimethyl-3-octanol], for the setting “dose 0.075% w/v, contact 120 s, 25% EtOH”, the log reduction at 0.075 % strength was 1.2. For the same molecule, where the note is “contact 120 s, 25% EtOH”, the log reduction at 0.1 % strength came out at 5, the log reduction at 0.125 % strength is 7.3 and the log reduction at 0.15 % strength stood at 7.1.

For the molecule `OC/C=C/c1ccccc1` [Cinnamic alcohol, (2E)-3-phenyl-2-propen-1-ol], the log reduction at 0.25 % strength under setting [2] amounted to 0.2. Where the note is “contact 120 s, 25% EtOH”, the log reduction at 0.5 % strength is 4.1, the log reduction at 1 % strength is 7.3, the log reduction at 1.25 % strength was found to be 7.3 and the log reduction at 1.5 % strength worked out at 7.3.

On to `CC1=CCC(C(C)(C)O)CC1` (centres unmarked) [Terpineol Ord, 2-(4-Methylcyclohex-3-en-1-yl)propan-2-ol], for which, for the setting “contact 120 s, 25% EtOH”, the log reduction at 0.1 % strength was -0.1 and the log reduction at 0.2 % strength is 1.9. The log reduction at 0.25 % strength under setting [2] was 5.8. In addition, the log reduction at 0.3 % strength under setting [3] worked out at 7.4. The log reduction at 0.4 % strength under setting [4] was found to be 7.4.

On to `CC(C=O)Cc1ccc2c(c1)OCO2` (centres unmarked) [Heliopropanal, 3-(1,3-Benzodioxol-5-yl)-2-methylpropanal], for which the log reduction at 0.175 % strength turned out to be 0.1, the log reduction at 0.25 % strength was 0.3, the log reduction at 0.3 % strength is 1.5 and the log reduction at 0.4 % strength worked out at 3.2. Further, the log reduction at 0.45 % strength was found to be 5.2.

As to `CC(C)=CCC/C(C)=C/CO` [Geraniol Pur], for the setting “contact 120 s, 25% EtOH”, the log reduction at 0.05 % strength is -0.2, the log reduction at 0.1 % strength turned out to be 2.7, the log reduction at 0.125 % strength turned out to be 5.3 and the log reduction at 0.15 % strength is 7.1.

Turning to `C=CCc1ccc(O)c(OC)c1` [Eugenol F, 2-Methoxy-4-(prop-2-en-1-yl)phenol], for the setting “contact 120 s, 25% EtOH”, the log reduction at 0.2 % strength was 0.3 and the log reduction at 0.35 % strength stood at 7.6. Also, the log reduction at 0.25 % strength under setting [2] worked out at 2.37. Further, the log reduction at 0.3 % strength under setting [3] was 4.9.

In the case of `C=C(C)[C@@H]1CC=C(CO)CC1` [Perycorolle, (S)-(−)-(4-Isopropenyl-1-cyclohexenyl)methanol], under “contact 120 s, 25% EtOH”, the log reduction at 0.1 % strength was -0.2, the log reduction at 0.125 % strength is 0.4, the log reduction at 0.15 % strength came out at 1.9 and the log reduction at 0.2 % strength was determined as 7.2. Moreover, the log reduction at 0.175 % strength under setting [1] worked out at 6.4.

On to `C/C=C/c1ccc(O)c(OC)c1` [Isoeugenol, 2-Methoxy-4-(prop-1-en-1-yl)phenol], for which, for the setting “contact 120 s, 25% EtOH”, the log reduction at 0.15 % strength was -0.3, the log reduction at 0.2 % strength came out at 0.5 and the log reduction at 0.35 % strength is 5.6. The log reduction at 0.25 % strength under setting [2] is 2.2. For the same molecule, the log reduction at 0.3 % strength under setting [3] came out at 3.7. Further, the log reduction at 0.4 % strength under setting [4] was 7.2.

The values above are taken from patent US12419305B2, “Antimicrobial compositions” (Firmenich SA, priority 2018, dated 2025).
